# Results from patent US7314864B1, “Humanin, a polypeptide suppressing neuronal death” (Keio University, priority 1999, dated 2008).
# What was measured:
# [1] = test system: primary cultured cortical neurons treated with Aβ1-43; assay: Aβ1-43-induced cell damage of primary cultured cortical neurons, LDH release; type: cell-based, mouse; details: 100 ng/ml
# Procedure: Primary culture of mouse cortical neurons was performed in poly-D-lysine-coated 24-well plates (Sumitomo Bakelite) in the absence of serum and in the presence of N2 supplement, as described in literature (Ecksioglu, Y. Z. et al. (1994) Brain Res. 644, 282-90). The purity of neurons prepared according to the method was >98%. The prepared neurons (1.25×10^5/well, 250 μl media/well) were preincubated in the absence or presence of 10 nM or 10 μM sHN polypeptides for 16 hours; and were treated with 25 μM Aβ1-43 in the absence or presence of sHN polypeptides at the same concentrations for 24 to 72 hours. […]
# Trypan blue exclusion assay was performed as follows. […] Within 3 minutes of the trypan blue solution addition, stained cells were counted. Cell mortality was determined [100-cell survival rate (%)] based on the stained cell count. […] Specifically, 6 μM Calcein-AM (3′, 6′-Di-(O-acetyl)-2′-7′-bis[N,N-bis(carboxymethyl)aminomethyl]fluorescein, tetraacetoxymethyl ester; Dojindo, Cat. #349-07201) was added to the neurons; and 30 minutes or longer after Calcein-AM treatment, fluorescence (ex=490 nm, em=515 nm) was observed by fluorescence microscopy, and measured by a spectrometer. Specific fluorescence was calculated by subtracting basal fluorescence from total fluorescence. […]
# [2] = test system: primary cultured cortical neurons treated with Aβ1-43; assay: Aβ1-43-induced cell death of primary cultured cortical neurons, trypan blue exclusion assay; type: cell-based; details: 100 ng/ml
substance,measurement,setting,value
"NGF: NGF, tested at 100 ng/ml against Aβ-induced neuronal death [reference compound]",effect on increased LDH release induced by Aβ,[1],did not show effects
same,effect on cell death of neurons induced by Aβ,[2],did not show effects
